Test results as given in ChEMBL document CHEMBL5291721, “A preclinical secondary pharmacology resource illuminates target-adverse drug reaction associations of marketed drugs” (Nat Commun, 2023).

Key:
[1] = molecular target: Neuronal acetylcholine receptor subunit alpha-4 (Homo sapiens, UniProt P43681)
Adenosine receptor A1 = molecular target: T1, Adenosine receptor A1 (Homo sapiens, UniProt P30542)
T1 sequence (P30542 whole entry): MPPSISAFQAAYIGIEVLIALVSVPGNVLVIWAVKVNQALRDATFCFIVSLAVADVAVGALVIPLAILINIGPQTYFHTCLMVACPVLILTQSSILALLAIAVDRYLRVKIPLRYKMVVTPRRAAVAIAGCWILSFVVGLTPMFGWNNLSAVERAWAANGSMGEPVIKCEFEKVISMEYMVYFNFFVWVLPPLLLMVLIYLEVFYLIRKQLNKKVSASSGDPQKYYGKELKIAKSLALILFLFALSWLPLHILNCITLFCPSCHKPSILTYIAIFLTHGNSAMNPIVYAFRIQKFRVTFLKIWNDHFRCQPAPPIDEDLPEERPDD

[2] = molecular target: 5-hydroxytryptamine receptor 2A (Homo sapiens, UniProt P28223); format: functional, cell-based
[3] = molecular target: T2, Alpha-1A adrenergic receptor (Homo sapiens, UniProt P35348)
T2 sequence (P35348 whole entry): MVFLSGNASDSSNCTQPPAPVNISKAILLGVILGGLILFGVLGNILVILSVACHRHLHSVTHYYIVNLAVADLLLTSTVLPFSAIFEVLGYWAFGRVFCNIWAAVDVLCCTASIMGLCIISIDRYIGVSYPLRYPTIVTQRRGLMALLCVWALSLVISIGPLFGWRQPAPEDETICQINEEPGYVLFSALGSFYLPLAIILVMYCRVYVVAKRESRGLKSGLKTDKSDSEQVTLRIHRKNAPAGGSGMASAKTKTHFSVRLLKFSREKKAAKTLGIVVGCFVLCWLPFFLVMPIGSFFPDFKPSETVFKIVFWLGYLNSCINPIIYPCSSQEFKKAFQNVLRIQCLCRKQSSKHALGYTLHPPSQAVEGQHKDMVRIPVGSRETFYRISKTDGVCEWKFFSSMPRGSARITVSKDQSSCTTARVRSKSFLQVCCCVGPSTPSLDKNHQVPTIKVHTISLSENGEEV

[4] = molecular target: Muscarinic acetylcholine receptor M3 (Homo sapiens, UniProt P20309)
[5] = molecular target: Gamma-aminobutyric acid receptor subunit alpha-1/alpha-2/beta-2/gamma-2 (Homo sapiens, UniProt P14867+P18507+P47869+P47870); format: functional, cell-based
Progesterone receptor = molecular target: T3, Progesterone receptor (Homo sapiens, UniProt P06401); format: functional
T3 sequence (P06401 whole entry): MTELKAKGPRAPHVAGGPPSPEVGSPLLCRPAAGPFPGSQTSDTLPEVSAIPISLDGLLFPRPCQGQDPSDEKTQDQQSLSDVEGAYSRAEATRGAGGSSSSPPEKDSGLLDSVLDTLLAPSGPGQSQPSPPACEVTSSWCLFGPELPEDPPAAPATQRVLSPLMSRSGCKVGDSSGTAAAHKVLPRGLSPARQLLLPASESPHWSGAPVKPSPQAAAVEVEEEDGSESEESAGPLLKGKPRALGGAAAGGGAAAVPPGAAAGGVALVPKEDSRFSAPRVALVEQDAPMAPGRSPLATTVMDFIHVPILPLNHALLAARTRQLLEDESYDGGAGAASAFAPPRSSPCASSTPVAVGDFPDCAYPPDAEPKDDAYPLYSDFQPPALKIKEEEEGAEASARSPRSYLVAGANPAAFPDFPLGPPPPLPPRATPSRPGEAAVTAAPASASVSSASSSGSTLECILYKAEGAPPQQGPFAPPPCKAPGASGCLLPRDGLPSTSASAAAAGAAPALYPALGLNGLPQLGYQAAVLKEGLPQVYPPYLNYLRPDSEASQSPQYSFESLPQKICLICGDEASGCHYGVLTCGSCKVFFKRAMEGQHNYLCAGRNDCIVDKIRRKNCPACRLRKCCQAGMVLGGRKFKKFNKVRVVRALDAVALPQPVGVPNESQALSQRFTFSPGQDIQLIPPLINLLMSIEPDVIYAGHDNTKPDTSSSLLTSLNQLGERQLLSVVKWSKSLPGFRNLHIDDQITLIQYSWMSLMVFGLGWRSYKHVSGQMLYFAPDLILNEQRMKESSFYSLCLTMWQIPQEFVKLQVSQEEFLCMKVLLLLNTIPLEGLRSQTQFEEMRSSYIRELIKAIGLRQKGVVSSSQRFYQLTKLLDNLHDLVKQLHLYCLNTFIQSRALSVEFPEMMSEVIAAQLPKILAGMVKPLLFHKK

Histamine H3 receptor = Histamine H3 receptor (Homo sapiens, UniProt Q9Y5N1)
Glucagon receptor = Glucagon receptor (Homo sapiens, UniProt P47871)
D(1A) dopamine receptor = D(1A) dopamine receptor (Homo sapiens, UniProt P21728)
[6] = molecular target: T4, Neuropeptide Y receptor type 2 (Homo sapiens, UniProt P49146)
T4 sequence (P49146 whole entry): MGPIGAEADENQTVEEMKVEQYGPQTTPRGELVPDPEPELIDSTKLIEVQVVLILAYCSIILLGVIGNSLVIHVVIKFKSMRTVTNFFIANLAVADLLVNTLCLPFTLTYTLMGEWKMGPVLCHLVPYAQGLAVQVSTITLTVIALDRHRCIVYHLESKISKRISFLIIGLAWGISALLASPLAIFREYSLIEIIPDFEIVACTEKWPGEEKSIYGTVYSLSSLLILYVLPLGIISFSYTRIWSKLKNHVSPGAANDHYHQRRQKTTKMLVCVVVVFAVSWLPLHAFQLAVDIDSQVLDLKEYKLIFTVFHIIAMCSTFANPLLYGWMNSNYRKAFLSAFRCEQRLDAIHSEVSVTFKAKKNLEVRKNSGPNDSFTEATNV
Note: assay procedure not described here.

Chain of Glucagon receptor (P47871 whole entry): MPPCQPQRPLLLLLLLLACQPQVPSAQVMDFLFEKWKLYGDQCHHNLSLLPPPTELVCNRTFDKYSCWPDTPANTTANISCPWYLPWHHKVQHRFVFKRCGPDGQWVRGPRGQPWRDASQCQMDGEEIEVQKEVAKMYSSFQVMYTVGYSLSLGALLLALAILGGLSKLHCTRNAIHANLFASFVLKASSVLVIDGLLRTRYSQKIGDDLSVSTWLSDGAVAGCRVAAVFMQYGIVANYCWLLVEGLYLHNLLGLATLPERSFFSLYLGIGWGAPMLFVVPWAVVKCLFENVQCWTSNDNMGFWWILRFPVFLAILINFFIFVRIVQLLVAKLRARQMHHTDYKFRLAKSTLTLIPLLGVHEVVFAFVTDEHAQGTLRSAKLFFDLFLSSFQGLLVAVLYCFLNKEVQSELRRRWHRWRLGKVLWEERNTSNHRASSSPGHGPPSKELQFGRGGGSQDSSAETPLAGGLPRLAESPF
Chain of Muscarinic acetylcholine receptor M3 (P20309 whole entry): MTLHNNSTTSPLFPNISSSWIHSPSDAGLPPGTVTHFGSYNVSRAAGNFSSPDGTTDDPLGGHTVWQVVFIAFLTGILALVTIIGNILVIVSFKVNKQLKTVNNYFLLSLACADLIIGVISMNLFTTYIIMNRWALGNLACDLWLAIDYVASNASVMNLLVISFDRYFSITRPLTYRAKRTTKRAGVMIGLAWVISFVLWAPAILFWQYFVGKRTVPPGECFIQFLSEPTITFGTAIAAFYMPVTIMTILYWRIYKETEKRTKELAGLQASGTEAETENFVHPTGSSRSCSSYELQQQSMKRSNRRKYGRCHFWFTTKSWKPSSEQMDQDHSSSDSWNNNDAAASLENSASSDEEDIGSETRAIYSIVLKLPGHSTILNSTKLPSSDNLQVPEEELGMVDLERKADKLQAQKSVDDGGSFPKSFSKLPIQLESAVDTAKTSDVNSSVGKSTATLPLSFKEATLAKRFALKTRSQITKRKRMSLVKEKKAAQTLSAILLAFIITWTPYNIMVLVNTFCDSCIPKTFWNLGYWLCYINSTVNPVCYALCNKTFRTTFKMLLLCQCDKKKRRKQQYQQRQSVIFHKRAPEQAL
Chain of Neuronal acetylcholine receptor subunit alpha-4 (P43681 whole entry): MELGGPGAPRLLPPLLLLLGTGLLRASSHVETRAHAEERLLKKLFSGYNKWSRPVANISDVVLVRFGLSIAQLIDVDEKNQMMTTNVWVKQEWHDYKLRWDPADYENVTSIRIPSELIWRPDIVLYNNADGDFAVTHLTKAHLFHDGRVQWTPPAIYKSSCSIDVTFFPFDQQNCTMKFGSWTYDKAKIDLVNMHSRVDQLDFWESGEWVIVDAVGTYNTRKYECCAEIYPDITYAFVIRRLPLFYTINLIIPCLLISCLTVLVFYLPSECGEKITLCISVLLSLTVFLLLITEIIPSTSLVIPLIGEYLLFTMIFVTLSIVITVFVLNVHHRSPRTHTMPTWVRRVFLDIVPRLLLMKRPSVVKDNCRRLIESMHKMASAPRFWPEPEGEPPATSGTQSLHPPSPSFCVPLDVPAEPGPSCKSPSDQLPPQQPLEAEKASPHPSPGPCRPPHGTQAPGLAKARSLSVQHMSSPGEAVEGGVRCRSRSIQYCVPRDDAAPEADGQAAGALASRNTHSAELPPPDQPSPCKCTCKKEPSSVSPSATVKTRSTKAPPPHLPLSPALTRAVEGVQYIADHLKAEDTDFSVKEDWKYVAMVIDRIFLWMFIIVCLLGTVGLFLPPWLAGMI
Chain of 5-hydroxytryptamine receptor 2A (P28223 whole entry): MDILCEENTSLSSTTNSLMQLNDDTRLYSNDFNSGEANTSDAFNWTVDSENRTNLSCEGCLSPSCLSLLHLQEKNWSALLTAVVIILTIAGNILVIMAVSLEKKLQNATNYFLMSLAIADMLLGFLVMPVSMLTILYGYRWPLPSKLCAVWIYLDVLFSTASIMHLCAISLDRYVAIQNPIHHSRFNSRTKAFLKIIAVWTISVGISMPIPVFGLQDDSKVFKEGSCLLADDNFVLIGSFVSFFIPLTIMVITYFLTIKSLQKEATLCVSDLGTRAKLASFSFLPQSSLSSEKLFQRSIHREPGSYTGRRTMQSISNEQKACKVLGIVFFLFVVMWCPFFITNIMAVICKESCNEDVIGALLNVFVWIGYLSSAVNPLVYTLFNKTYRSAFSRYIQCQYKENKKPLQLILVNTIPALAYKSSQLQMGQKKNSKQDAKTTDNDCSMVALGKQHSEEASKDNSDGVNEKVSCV
Chain of Histamine H3 receptor (Q9Y5N1 whole entry): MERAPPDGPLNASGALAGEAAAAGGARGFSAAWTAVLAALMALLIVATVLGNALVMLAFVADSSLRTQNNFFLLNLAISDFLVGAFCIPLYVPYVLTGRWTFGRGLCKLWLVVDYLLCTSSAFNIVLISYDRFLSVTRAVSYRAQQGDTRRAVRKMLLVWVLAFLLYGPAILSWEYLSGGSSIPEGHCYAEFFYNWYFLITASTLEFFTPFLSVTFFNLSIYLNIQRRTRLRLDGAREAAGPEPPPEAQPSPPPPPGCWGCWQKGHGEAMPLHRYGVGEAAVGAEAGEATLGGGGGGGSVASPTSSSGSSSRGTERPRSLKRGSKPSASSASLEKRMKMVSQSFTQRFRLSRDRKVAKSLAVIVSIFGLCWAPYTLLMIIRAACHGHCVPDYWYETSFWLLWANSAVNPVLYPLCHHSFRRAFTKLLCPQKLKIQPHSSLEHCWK
Chain of Gamma-aminobutyric acid receptor subunit alpha-1/alpha-2/beta-2/gamma-2 (P14867 whole entry): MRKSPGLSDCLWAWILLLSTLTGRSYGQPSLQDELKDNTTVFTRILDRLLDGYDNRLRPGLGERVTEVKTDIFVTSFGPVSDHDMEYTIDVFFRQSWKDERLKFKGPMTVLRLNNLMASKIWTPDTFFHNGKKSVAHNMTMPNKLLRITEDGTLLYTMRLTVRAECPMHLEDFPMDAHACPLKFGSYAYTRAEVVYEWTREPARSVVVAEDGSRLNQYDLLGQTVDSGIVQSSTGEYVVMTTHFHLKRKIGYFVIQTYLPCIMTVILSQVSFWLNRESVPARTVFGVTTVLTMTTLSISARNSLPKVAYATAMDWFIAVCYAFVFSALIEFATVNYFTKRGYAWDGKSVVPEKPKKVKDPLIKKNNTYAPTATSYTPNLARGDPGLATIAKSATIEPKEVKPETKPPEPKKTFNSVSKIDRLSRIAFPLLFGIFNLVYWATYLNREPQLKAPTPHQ
Chain of Gamma-aminobutyric acid receptor subunit alpha-1/alpha-2/beta-2/gamma-2 (P47870 whole entry): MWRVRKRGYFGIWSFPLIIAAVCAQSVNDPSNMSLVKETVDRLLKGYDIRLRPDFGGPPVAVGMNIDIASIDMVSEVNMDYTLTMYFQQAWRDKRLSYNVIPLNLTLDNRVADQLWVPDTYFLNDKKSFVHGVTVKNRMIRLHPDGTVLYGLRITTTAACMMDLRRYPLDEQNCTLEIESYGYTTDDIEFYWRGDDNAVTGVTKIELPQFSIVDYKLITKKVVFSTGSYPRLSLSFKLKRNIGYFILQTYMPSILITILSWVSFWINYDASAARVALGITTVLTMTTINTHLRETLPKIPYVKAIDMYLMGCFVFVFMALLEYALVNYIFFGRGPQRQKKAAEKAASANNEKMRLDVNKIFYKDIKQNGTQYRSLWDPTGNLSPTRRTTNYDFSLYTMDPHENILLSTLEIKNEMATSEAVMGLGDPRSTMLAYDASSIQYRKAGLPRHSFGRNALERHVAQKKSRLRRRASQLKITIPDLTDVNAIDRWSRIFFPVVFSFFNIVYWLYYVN
Chain of Gamma-aminobutyric acid receptor subunit alpha-1/alpha-2/beta-2/gamma-2 (P18507 whole entry): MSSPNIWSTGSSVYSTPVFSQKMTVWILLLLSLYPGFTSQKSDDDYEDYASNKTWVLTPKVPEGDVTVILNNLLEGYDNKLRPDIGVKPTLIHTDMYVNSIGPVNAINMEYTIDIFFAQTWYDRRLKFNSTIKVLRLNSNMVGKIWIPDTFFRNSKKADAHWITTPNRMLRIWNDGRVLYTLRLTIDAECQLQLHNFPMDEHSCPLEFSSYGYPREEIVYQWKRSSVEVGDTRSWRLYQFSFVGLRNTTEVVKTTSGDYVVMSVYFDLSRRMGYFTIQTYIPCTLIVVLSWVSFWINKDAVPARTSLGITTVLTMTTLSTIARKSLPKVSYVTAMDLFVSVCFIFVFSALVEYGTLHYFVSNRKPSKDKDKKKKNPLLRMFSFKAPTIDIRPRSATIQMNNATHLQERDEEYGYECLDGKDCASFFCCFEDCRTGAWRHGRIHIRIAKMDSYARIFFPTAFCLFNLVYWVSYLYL
Chain of Gamma-aminobutyric acid receptor subunit alpha-1/alpha-2/beta-2/gamma-2 (P47869 whole entry): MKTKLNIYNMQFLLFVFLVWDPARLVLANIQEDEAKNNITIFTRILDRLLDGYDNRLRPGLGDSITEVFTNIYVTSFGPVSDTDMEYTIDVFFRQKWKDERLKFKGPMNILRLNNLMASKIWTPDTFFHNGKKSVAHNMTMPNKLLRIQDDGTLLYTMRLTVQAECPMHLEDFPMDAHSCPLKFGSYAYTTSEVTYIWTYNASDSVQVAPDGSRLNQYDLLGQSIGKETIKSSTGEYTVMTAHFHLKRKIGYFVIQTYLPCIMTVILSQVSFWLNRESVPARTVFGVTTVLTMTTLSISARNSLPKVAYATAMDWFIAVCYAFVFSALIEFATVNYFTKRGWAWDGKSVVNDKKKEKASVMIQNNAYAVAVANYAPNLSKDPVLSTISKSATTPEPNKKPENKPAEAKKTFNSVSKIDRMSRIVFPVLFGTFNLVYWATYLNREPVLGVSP
Chain of D(1A) dopamine receptor (P21728 whole entry): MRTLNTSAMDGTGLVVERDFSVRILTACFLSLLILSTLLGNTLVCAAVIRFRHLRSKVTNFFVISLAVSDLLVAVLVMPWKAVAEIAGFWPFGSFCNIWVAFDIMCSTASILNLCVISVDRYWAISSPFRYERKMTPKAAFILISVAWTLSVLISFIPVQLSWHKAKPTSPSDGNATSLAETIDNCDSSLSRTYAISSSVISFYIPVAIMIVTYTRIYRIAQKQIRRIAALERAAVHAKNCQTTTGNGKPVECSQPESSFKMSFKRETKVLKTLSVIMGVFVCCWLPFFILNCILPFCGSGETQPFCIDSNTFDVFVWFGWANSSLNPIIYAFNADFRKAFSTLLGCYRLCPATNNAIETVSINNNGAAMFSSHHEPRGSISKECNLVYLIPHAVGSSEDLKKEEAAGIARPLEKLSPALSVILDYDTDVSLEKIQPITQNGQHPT

SMILES	AC50 [1]	AC50 (Adenosine receptor A1)	AC50 [2]	AC50 [3]	AC50 [4]	AC50 [5]	AC50 (Progesterone receptor)	AC50 (Histamine H3 receptor)	AC50 (Glucagon receptor)	AC50 (D(1A) dopamine receptor)	AC50 [6]
O=C(O)c1cccc(-c2noc(-c3ccccc3F)n2)c1	> 10 µM	> 30 µM									
CO/N=C(\C(=O)N[C@@H]1C(=O)N2C(C(=O)OCOC(=O)C(C)(C)C)=C(C)CS[C@H]12)c1csc(N)n1		> 30 µM	> 30 µM	> 30 µM	> 30 µM	> 30 µM					
NS(=O)(=O)c1cc(-c2nnn[nH]2)c(NCc2cccs2)cc1Cl [AZOSEMIDE]	> 30 µM		> 30 µM		> 30 µM		> 30 µM	> 30 µM			
CCS(=O)(=O)N1CC(CC#N)(n2cc(-c3ncnc4[nH]ccc34)cn2)C1 [BARICITINIB]		> 30 µM									
O=C(Cn1ccnc1[N+](=O)[O-])NCc1ccccc1 [BENZNIDAZOLE]	> 30 µM	> 30 µM	> 30 µM	> 30 µM	> 30 µM		> 30 µM	> 30 µM			
C[N+](C)(C)CC(=O)O [BETAINE]	> 30 µM		> 30 µM		> 30 µM		> 30 µM	> 30 µM			
CCCC(=O)N1CCCN(c2nc(N)c3cc(OC)c(OC)cc3n2)CC1 [BUNAZOSIN]	> 30 µM		> 30 µM		> 30 µM	> 30 µM	> 30 µM	> 30 µM			
C[N+](C)(C)CCOC(N)=O [CARBAMOYLCHOLINE]	> 10 µM						> 10 µM				
N[C@@H](CSCC(=O)O)C(=O)O [CARBOCYSTEINE]	> 30 µM		> 30 µM		> 30 µM		> 30 µM	> 30 µM			
NCc1ccccc1CC(=O)N[C@@H]1C(=O)N2C(C(=O)O)=C(CSc3nnnn3CC(=O)O)CS[C@H]12 [CEFORANIDE]		> 30 µM									
CC(C)(N)Cc1ccc(Cl)cc1 [CHLORPHENTERMINE]	10 µM		> 30 µM		> 30 µM			> 10 µM	> 30 µM	> 10 µM	> 30 µM
Nc1nc(-n2cc(C(=O)O)c(=O)c3cc(F)c(N4CC(O)C4)c(Cl)c32)c(F)cc1F [DELAFLOXACIN]		> 30 µM		> 30 µM							
CN(C)[C@@H]1C(O)=C(C(N)=O)C(=O)[C@@]2(O)C(O)=C3C(=O)c4c(O)ccc(Cl)c4[C@@H](O)[C@H]3C[C@@H]12 [DEMECLOCYCLINE]	> 10 µM		> 10 µM		> 30 µM		> 30 µM				
NS(=O)(=O)c1cc(Cl)c(Cl)c(S(N)(=O)=O)c1 [DICHLORPHENAMIDE]	> 10 µM		> 10 µM		> 30 µM		> 10 µM	> 10 µM			
O=C(Nc1ccccc1)OCC(CN1CCCCC1)OC(=O)Nc1ccccc1 (stereo unspecified) [DIPERODON]			> 30 µM		> 10 µM			> 10 µM	> 30 µM	> 10 µM	> 30 µM
CC1=NN(c2ccccc2)C(=O)C1 [EDARAVONE]		> 30 µM		> 30 µM							
C=C1C[C@@H]2[C@H](CC[C@]3(C)C(=O)CC[C@@H]23)[C@@]2(C)C=CC(=O)C=C12 [EXEMESTANE]	> 10 µM		> 30 µM		> 30 µM			> 10 µM	> 30 µM		> 30 µM
